Results on 74 compounds are retold here after patent US20210317099A1, “SAFER, POTENT, AND FAST ACTING ANTIMICROBIAL AGENTS” (Purdue Research Foundation, priority 2020, published 2021).

In brackets after ≈: the same amount, converted by molar mass.

One assay relates to Staphylococcus aureus NRS384 (MRSA USA300). In words: Initial MIC screening, broth microdilution (CLSI). To be noted: Staphylococcus aureus NRS384 (MRSA USA300), broth microdilution, visual reading. In kind it is cell-based. How it is done:
Method: The minimum inhibitory concentration (MIC) of the compounds 1-187, and control antibiotics (vancomycin, linezolid) was determined using the broth microdilution method against methicillin-resistant Staphylococcus aureus (MRSA) USA 300 using the broth microdilution method according to the guidelines outlined by the Clinical and Laboratory Standards Institute (CLSI). MRSA strain was cultivated on Tryptic soy agar plates and let grow for 24 hours at 37° C. under aerobic conditions. Bacterial suspension equivalent to 0.5 McFarland standard was prepared and diluted in cation-adjusted Mueller-Hinton broth (CAMHB) to attain a bacterial concentration of 5×10^5 CFU/ml and seeded in 96-well plates. The desired concentrations of each drug and compound were added in the first row of the 96-well plates and serially diluted to achieve a concentration gradient from 64 μg/ml to 0.5 μg/mL.
On the technique in general: In broth dilution the organism is exposed to a series of concentrations in liquid medium.
For the compound `C=C1C(=O)O[C@H](c2ccc3ccccc3c2)[C@@H]1c1ccccc1` [Compound 21], the MIC (in general, the least concentration at which growth counts as inhibited) was 32 µg/mL (≈ 107 µM). Still for that read-out and setting: the result for `C=C1C(=O)O[C@H](c2ccc(OC)cc2)[C@@H]1c1ccc(OC)cc1` [Compound 68] reads 64 µg/mL (≈ 206 µM).

Staying with this assay, now noted: Staphylococcus aureus, Staphylococcus aureus NRS384 (MRSA USA300), broth microdilution, visual reading; read-out: MIC.
For the compound `C=C1C(=O)O[C@H](c2cccc(Br)c2)[C@@H]1c1ccc(C#N)cc1` [Compound 1], the MIC is 8 µg/mL (≈ 22.6 µM). Same read-out and setting: the result for `C=C1C(=O)O[C@H](c2ccc(OC)cc2)[C@@H]1c1ccc(Br)cc1` [Compound 2] reads 8 µg/mL (≈ 22.3 µM); that for `C=C1C(=O)O[C@H](c2ccc(OC)cc2)[C@@H]1c1cccc(Br)c1` [Compound 3], 8 µg/mL (≈ 22.3 µM).

As to `C=C1C(=O)O[C@H](c2ccc(O)cc2)[C@@H]1c1ccc(C#N)cc1` [Compound 4], the MIC stood at 256 µg/mL (≈ 879 µM).

Turning to `CN(C)C[C@@H]1C(=O)O[C@H](c2ccccc2)[C@@H]1c1ccccc1` [Compound 5], the minimum inhibitory concentration (MIC) is 16 µg/mL (≈ 54.2 µM). Same read-out and setting: then `Cc1ccc([C@@H]2[C@H](CN(C)C)C(=O)O[C@@H]2c2ccc(C)cc2)cc1` [Compound 6], with 32 µg/mL (≈ 98.9 µM). On the same count and under the same terms, then `COc1ccc([C@H]2OC(=O)[C@@H](CN(C)C)[C@H]2c2ccc(C)cc2)cc1` [Compound 7], with 32 µg/mL (≈ 94.3 µM); and `COc1ccc([C@H]2OC(=O)[C@@H](CN(C)C)[C@H]2c2ccccc2)cc1` [Compound 8], with greater than 256 µg/mL. Take `COc1ccc([C@@H]2[C@H](CN(C)C)C(=O)O[C@@H]2c2ccc(C#N)cc2)cc1` [Compound 9]: the MIC was 128 µg/mL (≈ 365 µM). Same read-out and setting: the result for `C=C1C(=O)O[C@H](c2cccc(F)c2F)[C@H]1c1ccccc1` [Compound 10] reads 16 µg/mL (≈ 55.9 µM). The same measure, in the same setting: the result for `CN(C)CC1C(=O)O[C@H](c2ccccc2)[C@H]1c1ccccc1` (some centres unmarked) [Compound 11] reads 32 µg/mL (≈ 108 µM). In the case of `C=C1C(=O)O[C@H](c2ccccc2Br)[C@@H]1c1ccc(C#N)cc1` [Compound 12], the MIC came out at 4 µg/mL (≈ 11.3 µM). Still for that read-out and setting: then `C=C1C(=O)O[C@H](c2ccc(Br)cc2)[C@@H]1c1ccc(C#N)cc1` [Compound 13], with 4 µg/mL (≈ 11.3 µM); and `Cc1ccc([C@H]2OC(=O)C(CN(C)C)[C@H]2c2ccc(C#N)cc2)cc1` (some centres unmarked) [Compound 14], with greater than 128 µg/mL. Consider `COc1ccc([C@H]2OC(=O)C(CN(C)C)[C@H]2c2ccc(C#N)cc2)cc1` (some centres unmarked) [Compound 15], for which the MIC is greater than 128 µg/mL.

Turning to `CN(C)CC1C(=O)O[C@H](c2ccccc2)[C@@H]1c1ccc(C#N)cc1` (some centres unmarked) [Compound 16], the minimal inhibitory concentration (MIC) is greater than 128 µg/mL. The same measure, in the same setting: the result for `COc1ccc([C@@H]2C(CN(C)C)C(=O)O[C@@H]2c2ccccc2)cc1` (some centres unmarked) [Compound 17] reads 64 µg/mL (≈ 197 µM); that for `Cc1ccc([C@H]2OC(=O)C(CN(C)C)[C@H]2c2ccccc2)cc1` (some centres unmarked) [Compound 18], 128 µg/mL (≈ 414 µM). With `C=C1C(=O)O[C@H](c2cccc(OC)c2)[C@@H]1c1ccc(C#N)cc1` [Compound 19], the MIC turned out to be 64 µg/mL (≈ 210 µM). Consider `C=C1C(=O)O[C@H](c2cccc(C#N)c2)[C@@H]1c1ccc(OC)cc1` [Compound 20], for which the MIC amounted to 16 µg/mL (≈ 52.4 µM). On the same count and under the same terms, then `C=C1C(=O)O[C@H](c2ccc(N)cc2)[C@@H]1c1ccccc1` [Compound 22], with 32 µg/mL (≈ 121 µM); and `C=C1C(=O)OC[C@@H]1c1ccccc1` [Compound 25], with greater than 128 µg/mL; and `CCCCC[C@@H]1CC(CN2CCCCC2)C(=O)O1` (some centres unmarked) [Compound 26], with greater than 128 µg/mL. The same measure, in the same setting: the result for `COc1cc([C@H]2OC(=O)C(CN3CCCCC3)[C@H]2c2ccccc2Br)ccc1OCc1ccccc1` (some centres unmarked) [Compound 27] reads greater than 128 µg/mL; that for `N#Cc1ccc([C@H]2COC(=O)C2CN2CCCCC2)cc1` (some centres unmarked) [Compound 28], greater than 128 µg/mL.

For the compound `C/C=C/[C@H]1OC(=O)C(CN2CCCCC2)[C@H]1c1ccc(Br)cc1` (some centres unmarked) [Compound 29], the MIC turned out to be 16 µg/mL (≈ 42.3 µM). Still for that read-out and setting: the result for `O=C1O[C@H](c2ccc3ccccc3c2)CC1CN1CCCCC1` (some centres unmarked) [Compound 31] reads greater than 128 µg/mL; that for `O=C1O[C@H](c2ccccc2)CC1CN1CCCCC1` (some centres unmarked) [Compound 32], greater than 128 µg/mL.

Regarding `C[C@@]1(c2ccccc2)CC(CN2CCCCC2)C(=O)O1` (some centres unmarked) [Compound 33], the MIC was greater than 128 µg/mL.

As for `O=C1OCCC1CN1CCCCC1` (centres unmarked) [Compound 34], the MIC is greater than 128 µg/mL.

Consider `COc1ccc([C@@H]2C(CN3CCCCC3)C(=O)O[C@@H]2c2ccc(C)cc2)cc1` (some centres unmarked) [Compound 35], for which the MIC is 64 µg/mL (≈ 169 µM).

Regarding `C=C1C(=O)O[C@H](c2ccc(C#N)cc2)[C@@H]1c1ccc(C)cc1` [Compound 37], the MIC came to 16 µg/mL (≈ 55.3 µM). The same measure, in the same setting: then `C=C1C(=O)O[C@H](c2ccc(C#N)cc2)[C@@H]1c1ccccc1` [Compound 39], with 64 µg/mL (≈ 232 µM); and `C=C1C(=O)O[C@H](c2ccccc2OC)[C@@H]1c1ccccc1Br` [Compound 40], with 16 µg/mL (≈ 44.5 µM); and `CCC[C@H]1COC(=O)C1CN1CCCCC1` (some centres unmarked) [Compound 41], with greater than 128 µg/mL. On the same count and under the same terms, the result for `C=C1C(=O)O[C@H](c2ccccc2OC)[C@@H]1c1ccc(C#N)cc1` [Compound 42] reads 32 µg/mL (≈ 105 µM); that for `C=C1C(=O)O[C@H](c2ccc(O)cc2)[C@@H]1c1cccc(C#N)c1` [Compound 43], 128 µg/mL (≈ 439 µM); that for `C=C1C(=O)O[C@H](c2c(OC)cc(OC)cc2OC)[C@@H]1c1ccc(C#N)cc1` [Compound 44], greater than 128 µg/mL. In the case of `CCC[C@@H]1[C@H](CN2CCCCC2)C(=O)O[C@H]1c1ccc(SC)cc1` [Compound 45], the MIC is greater than 128 µg/mL. The same measure, in the same setting: the result for `O=C1OC[C@H](/C=C/c2ccccc2)[C@@H]1CN1CCCCC1` [Compound 46] reads greater than 128 µg/mL; that for `O=C1O[C@H](C2CCCCC2)C[C@@H]1CN1CCCCC1` [Compound 47], greater than 128 µg/mL; that for `CC(C)(C)[Si](C)(C)OCC[C@H]1OC(=O)[C@@H](CN2CCCCC2)[C@H]1c1cccc(Br)c1` [Compound 48], greater than 128 µg/mL. The same measure, in the same setting: then `C=C1C(=O)O[C@H](c2ccccc2OC)[C@@H]1c1cccc(C#N)c1` [Compound 49], with 16 µg/mL (≈ 52.4 µM); and `C=C1C(=O)O[C@H](c2ccccc2O)[C@@H]1c1cccc(C#N)c1` [Compound 50], with greater than 128 µg/mL; and `C=C1C(=O)O[C@H](CCCCCCCC)[C@@H]1/C=C/c1ccccc1` [Compound 51], with greater than 128 µg/mL. Same read-out and setting: the result for `C=C1C(=O)O[C@H](CCO[Si](c2ccccc2)(c2ccccc2)C(C)(C)C)[C@@H]1c1ccc(C)cc1` [Compound 52] reads greater than 128 µg/mL. For `C=C1C(=O)O[C@H](c2ccccc2)[C@@H]1c1ccccc1Br` [Compound 53], the minimal inhibitory concentration (MIC) was found to be 4 µg/mL (≈ 12.2 µM). As to `C=C1C(=O)O[C@H](c2cc(OC)c(OC)c(OC)c2)[C@@H]1c1ccc(C#N)cc1` [Compound 54], the MIC turned out to be 128 µg/mL (≈ 350 µM). Still for that read-out and setting: the result for `C=C1C(=O)O[C@H](c2cccc(OC)c2)[C@@H]1c1ccccc1Br` [Compound 55] reads 8 µg/mL (≈ 22.3 µM); that for `C=C1C(=O)O[C@H](c2ccc(OCc3ccccc3)c(OC(C)=O)c2)[C@@H]1c1ccccc1Br` [Compound 56], greater than 128 µg/mL; that for `CC(=O)Oc1cc([C@H]2OC(=O)C(CN3CCOCC3)[C@H]2c2ccccc2Br)ccc1OCc1ccccc1` (some centres unmarked) [Compound 57], greater than 128 µg/mL. On the same count and under the same terms, the result for `O=C1OC2(CCCC2)CC1CN1CCCCC1` (centres unmarked) [Compound 58] reads greater than 128 µg/mL. Same read-out and setting: the result for `C=C1C(=O)O[C@H](/C=C/C)[C@@H]1c1ccc(Br)cc1` [Compound 59] reads 32 µg/mL (≈ 109 µM); that for `C=C1C(=O)O[C@H](c2c(OC)cc(OC)cc2OC)[C@@H]1c1ccc(C(F)(F)F)cc1` [Compound 61], greater than 128 µg/mL. For the compound `CCN(CC)C[C@@H]1C(=O)O[C@H](c2ccccc2)[C@@H]1c1ccccc1` [Compound 62], the MIC came out at 16 µg/mL (≈ 49.5 µM).

As to `C=CCNC[C@@H]1C(=O)O[C@H](c2ccccc2)[C@@H]1c1ccccc1` [Compound 63], the minimum inhibitory concentration (MIC) is 128 µg/mL (≈ 416 µM). Consider `C=C1C(=O)O[C@H](c2ccccc2)[C@@H]1c1ccc(C)cc1` [Compound 64], for which the MIC is 32 µg/mL (≈ 121 µM). Consider `C=C1C(=O)O[C@H](c2ccc(C)cc2)[C@@H]1c1ccc(C#N)cc1` [Compound 65], for which the MIC was 4 µg/mL (≈ 13.8 µM). For `C=C1C(=O)O[C@H](c2ccc(OC)cc2)[C@@H]1c1ccc(OC)cc1` [Compound 66], the MIC was 32 µg/mL (≈ 103 µM).

`C=C1C(=O)O[C@H](c2ccc(C)cc2)[C@@H]1c1ccc(C)cc1` [Compound 67]: the MIC amounted to 64 µg/mL (≈ 230 µM). As to `C=C1C(=O)O[C@H](c2ccccc2)[C@@H]1c1ccc(C#N)cc1` [Compound 69], the MIC was greater than 128 µg/mL.

With `C=C1C(=O)O[C@H](c2ccc(OC)cc2)[C@@H]1c1ccc(C#N)cc1` [Compound 70], the MIC was 32 µg/mL (≈ 105 µM).

As for `C=C1C(=O)O[C@H](c2ccc(C)cc2)[C@@H]1c1ccccc1` [Compound 71], the MIC came out at 32 µg/mL (≈ 121 µM). Still for that read-out and setting: then `C=C1C(=O)O[C@H](c2ccccc2)[C@@H]1c1ccc(OC)cc1` [Compound 72], with 64 µg/mL (≈ 228 µM); and `C=C1C(=O)O[C@H](c2ccc(OC)cc2)[C@@H]1c1ccc(C)cc1` [Compound 74], with 16 µg/mL (≈ 54.4 µM); and `C=C1C(=O)O[C@H](c2ccc(OC)cc2)[C@@H]1c1ccccc1` [Compound 75], with 64 µg/mL (≈ 228 µM). For `O=C1OC[C@H](c2ccco2)C1CN1CCCCC1` (some centres unmarked) [Compound 76], the MIC was greater than 128 µg/mL.

For the compound `C=C1C(=O)O[C@H](c2ccccc2OC)[C@@H]1c1ccc(C(F)(F)F)cc1` [Compound 77], the MIC is 8 µg/mL (≈ 23 µM).

Regarding `C=C1C(=O)O[C@H](c2ccc(OC)cc2)[C@@H]1c1ccccc1Br` [Compound 78], the MIC came out at 8 µg/mL (≈ 22.3 µM). Turning to `C=C1C(=O)O[C@H](c2ccc(OC)cc2)[C@@H]1c1ccc(C(F)(F)F)cc1` [Compound 79], the MIC was determined as 8 µg/mL (≈ 23 µM). In the case of `CC1(C)CC(CN2CCCCC2)C(=O)O1` (centres unmarked) [Compound 80], the MIC is greater than 128 µg/mL. As for `COc1ccc([C@H]2OC(=O)C(CN(C)C)[C@H]2c2ccc(OC)cc2)cc1` (some centres unmarked) [Compound 82], the minimal inhibitory concentration (MIC) is greater than 128 µg/mL.
